Measured values from US5474984A, “Horseshoe crab amebocyte lysate factor G activation inhibitor” (priority 1988, dated 1995).

Key:
factor G fraction of LAL = biological target: T1, factor G fraction of LAL (Tachypleus tridentatus, UniProt Q27082); assay: Method of measuring the titer of the activity of a factor G activation inhibitor (GI); assay type: biochemical, T. tridentatus; conditions: 10 pg factor G activating substance (sample No. 106), 37° C. 30 minutes; 100% inhibition = 100 units
T1 construct: Prepared from horseshoe crab, T. tridentatus; from tissue; host or cells: horseshoe crab amebocyte lysate (LAL), factor G fraction
T1 sequence (Q27082 20-673): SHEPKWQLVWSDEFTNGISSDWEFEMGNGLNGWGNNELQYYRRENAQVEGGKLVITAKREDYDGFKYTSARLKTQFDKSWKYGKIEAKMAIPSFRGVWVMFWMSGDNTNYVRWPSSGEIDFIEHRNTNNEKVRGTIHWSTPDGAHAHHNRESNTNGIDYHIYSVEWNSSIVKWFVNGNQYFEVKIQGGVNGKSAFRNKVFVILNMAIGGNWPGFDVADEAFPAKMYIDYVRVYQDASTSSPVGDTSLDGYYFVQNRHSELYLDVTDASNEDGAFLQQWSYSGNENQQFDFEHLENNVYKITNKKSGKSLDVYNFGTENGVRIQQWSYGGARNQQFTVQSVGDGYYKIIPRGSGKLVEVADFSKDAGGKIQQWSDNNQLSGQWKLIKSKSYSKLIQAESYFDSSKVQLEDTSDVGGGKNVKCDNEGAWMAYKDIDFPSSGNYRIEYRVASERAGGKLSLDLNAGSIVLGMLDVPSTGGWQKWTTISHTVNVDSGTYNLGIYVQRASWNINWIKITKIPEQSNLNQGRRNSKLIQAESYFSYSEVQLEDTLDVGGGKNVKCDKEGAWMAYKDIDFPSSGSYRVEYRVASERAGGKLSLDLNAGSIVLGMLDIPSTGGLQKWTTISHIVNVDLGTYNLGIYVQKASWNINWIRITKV
T1 sequence (Q27083 32-309 partner): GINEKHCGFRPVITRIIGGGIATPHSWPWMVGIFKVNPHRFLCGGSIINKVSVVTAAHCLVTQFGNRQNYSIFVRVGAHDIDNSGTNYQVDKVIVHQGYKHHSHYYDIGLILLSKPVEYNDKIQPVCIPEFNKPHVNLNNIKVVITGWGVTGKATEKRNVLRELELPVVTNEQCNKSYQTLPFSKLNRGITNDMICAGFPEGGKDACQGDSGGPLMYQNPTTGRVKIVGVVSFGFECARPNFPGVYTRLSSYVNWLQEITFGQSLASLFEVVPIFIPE
Method: The factor G activation inhibiting titer was measured by the "method of measuring the titer of the activity of a factor G activation inhibitor" described below and expressed in units/mg.
Method of measuring the titer of the activity of a factor G activation inhibitor (sometimes abbreviated as GI):
Two hundred microliters of the reaction mixture contained the following materials. […]
The above reaction mixture was incubated at 37° C. for 30 minutes, and 0.5 ml each of 0.04% sodium nitrite (0.48M HCl solution), 0.3% ammonium sulfamate, and 0.07% N-(1-naphthyl)ethylenediamine dihydrochloride were successively added, and its color was changed by diazo coupling. The amount of pNA liberated was measured as the absorbance at 545 nm (A545).
The GI activity was calculated from the following equation. [formula]
The amount of GI which inhibited activation of factor G by GA under these conditions to an extent of 100% is defined as 100 units.
A sample which is water-insoluble is used after it is dissolved in 0.3M NaOH, and neutralized with an equal volume of 0.3M HCl.
A GPC fractionated pure sample of the sonicated product of Curdlan which was prepared in Preparation Example 5 (Table 2, sample No. 106 having a molecular weight of 216,000).
Prepared from horseshoe crab, T. tridentatus, inhabiting the coast of Japan in accordance with the method described in T. Obayashi et al., Clin. Chim. Acta, 149, 55-65 (1985).

factor G [1] = assay: Operating mechanism experiment: inhibition of the factor G pathway with varied sequence of addition; assay type: biochemical, horseshoe crab; conditions: factor G activated by A before inhibitor
Source text: (§1) A reaction mixture of the following composition was used. Two hundred microliters of the reaction mixture contained 5 micrograms of a factor G activation inhibitor (laminariheptaose; sample No. 10; abbreviated as I), 3 pg of a factor G activating substance (GPC fraction of sonicated Curdlan; sample No. 106; abbreviated as A), 20 microliters of a factor G fraction (abbreviated as G) and 30 microliters of a proclotting enzyme fraction (abbreviated as P) prepared from LAL by the method described in T. Obayashi et al., Clin. Chim. Acta, 149, 55-65 (1985), 20 μmoles of Tris-HCl buffer (pH 8.0), 20 μmoles of MgCl2 and 0.13 μmole of a chromogenic substrate Boc-Leu-Gly-Arg-pNA (abbreviated as S).
(§2) In each of Runs 1 to 5, the sequence of adding the ingredients and the incubating conditions were varied, and the degree of inhibition of the factor G pathway was measured and determined in comparison with a control in which no inhibitor was added.

factor G [2] = biological target: T2, factor G (Tachypleus tridentatus, UniProt Q27082); assay: as above; assay type: biochemical, horseshoe crab; conditions: 5 micrograms inhibitor
T2 construct: prepared from LAL by the method described in T. Obayashi et al; from tissue; host or cells: horseshoe crab amebocyte lysate (LAL), factor G fraction
T2 sequence (Q27082 20-673): T1 sequence (Q27082 20-673)
T2 sequence (Q27083 32-309 partner): T1 sequence (Q27083 32-309 partner)
Source text: as §1, §2

OC[C@H]1O[C@@H](O[C@@H]2[C@@H](O)[C@H](O[C@@H]3[C@@H](O)[C@H](O[C@H]4[C@H](O)[C@@H](CO)OC(O)[C@@H]4O)O[C@H](CO)[C@H]3O)O[C@H](CO)[C@H]2O)[C@H](O)[C@@H](O)[C@@H]1O (stereo partly drawn) [compound 7, Laminaritetraose]
Factor G activation inhibiting titer (factor G fraction of LAL): 20,000 units/mg

OC[C@H]1O[C@@H](O[C@H]2[C@H](O)[C@@H](CO)OC(O)[C@@H]2O)[C@H](O)[C@@H](O)[C@@H]1O (stereo partly drawn) [compound 5, Laminasiribose]
Factor G activation inhibiting titer (factor G fraction of LAL): 214 units/mg

OC[C@H]1O[C@@H](O[C@@H]2[C@@H](O)[C@H](O[C@@H]3[C@@H](O)[C@H](O[C@@H]4[C@@H](O)[C@H](O[C@@H]5[C@@H](O)[C@H](O[C@H]6[C@H](O)[C@@H](CO)OC(O)[C@@H]6O)O[C@H](CO)[C@H]5O)O[C@H](CO)[C@H]4O)O[C@H](CO)[C@H]3O)O[C@H](CO)[C@H]2O)[C@H](O)[C@@H](O)[C@@H]1O (stereo partly drawn) [compound 9, Laminarihexaose]
Factor G activation inhibiting titer (factor G fraction of LAL): 55,000 units/mg

OCC1OC(OC2C(O)C(CO)OC(OC3C(O)C(CO)OC(OC4C(O)C(CO)OC(OC5C(O)C(CO)OC(OC6C(O)C(CO)OC(OC7C(O)C(O)OC(CO)C7O)C6O)C5O)C4O)C3O)C2O)C(O)C(O)C1O (stereo not drawn) [compound 10, Laminariheptaose]
Inhibition rate (%) to the control (factor G [1]; Run 4 (sequence drawing 14)): 1.7% | Inhibition rate (%) to the control (factor G [1]; Run 5 (sequence drawing 15)): 0% | Inhibition rate (%) to the control (factor G [2]; Run 1 (sequence of addition drawing 11), 3 pg activating substance sample No. 106): 100% | Inhibition rate (%) to the control (factor G [2]; Run 2 (sequence drawing 12), 3 pg activating substance): 100% | Inhibition rate (%) to the control (factor G [2]; Run 3 (sequence drawing 13), 3 pg activating substance): 100% | Factor G activation inhibiting titer (factor G fraction of LAL): 103,000 units/mg

OC[C@H]1O[C@@H](O[C@@H]2[C@@H](O)[C@H](O[C@@H]3[C@@H](O)[C@H](O[C@@H]4[C@@H](O)[C@H](O[C@H]5[C@H](O)[C@@H](CO)OC(O)[C@@H]5O)O[C@H](CO)[C@H]4O)O[C@H](CO)[C@H]3O)O[C@H](CO)[C@H]2O)[C@H](O)[C@@H](O)[C@@H]1O (stereo partly drawn) [compound 8, Laminaripentaose]
Factor G activation inhibiting titer (factor G fraction of LAL): 39,800 units/mg

OC[C@H]1O[C@@H](O[C@@H]2[C@@H](O)[C@H](O[C@H]3[C@H](O)[C@@H](CO)OC(O)[C@@H]3O)O[C@H](CO)[C@H]2O)[C@H](O)[C@@H](O)[C@@H]1O (stereo partly drawn) [compound 6, Laminaritriose]
Factor G activation inhibiting titer (factor G fraction of LAL): 4,670 units/mg

OC[C@H]1OC(O)[C@H](O)[C@@H](O)[C@@H]1O (stereo partly drawn) [compound 108, Glucose, reference compound]
Factor G activation inhibiting titer (factor G fraction of LAL): < 100 units/mg
